Data on 38 molecules can be found in patent US12202844B2, “MAP4K1 inhibitors” (Blueprint Medicines Corporation, priority 2021, dated 2025).

The test deals with T1, MAP4K1 (HPK1) (Homo sapiens, UniProt Q92918).
T1 construct: purchased Invitrogen
The test is described as follows: Inhibition of MAP4K1 biochemical enzymatic activity (EZReader 2 electrophoretic mobility shift). Conditions: HPK1 (Invitrogen), S6K2tide 1.5 μM, 120 min; ATP 26 μM or 1000 μM (not given). From the text: MAP4K1 (HPK1) and relevant off-target enzymatic activity was monitored using the Perkin Elmer electrophoretic mobility shift technology platform—the EZReader 2. […] Within the linear, steady-state phase of the kinase enzymatic reaction, the mixed pool of phosphorylated (product) and non-phosphorylated (substrate) peptides was passed through the microfluidic system of the PerkinElmer EZ Reader 2, under an applied electric potential difference. The presence of the phosphate group on the product peptide provided a difference in mass and charge between that of the substrate peptide, resulting in a separation of the substrate and product pools in the sample (Perrin et al. 2010). As the product and substrate peptide mixture passes the lasers within the instrument, these pools are detected (λex=488 nm, λem=568 nm) and resolved as separate peaks. The ratio between these peaks reflects the activity of the compound at that concentration, in that well, under those conditions.
Inhibitors were dissolved in 100% DMSO at a stock concentration of 10 mM. A 100×, 10-point, 4-fold serial dilution of each inhibitor was created in 100% DMSO either manually or on a Hamilton STAR liquid handler, starting at a relevant concentration, usually 1 mM. A volume of 0.130 μL of each concentration was transferred to the relevant wells of a 384-well plate (Greiner 781 201) in duplicate using a TTPLabtech Mosquito nano-litre dispenser. Using a Multidrop Combi, the remaining constituents of the kinase reaction were added to the 130 nL of dosed compound as follows (see table below for final reaction details):
Enzyme activity assays at the ^APPKM for ATP or 1 mM ATP: In each well of a 384-well plate, 0.1-15 nM of untreated enzyme was incubated in a total of 13 μL of buffer (100 mM HEPES pH 7.5, 0.015% Brij 35, 10 mM MgCl2, 1 mM DTT) with 1.5 μM fluorescent peptid and 20-1000 μM ATP, at 25° C., for 60-180 minutes in the presence or absence of a dosed concentration series of compound (1% DMSO final concentration). The kinase reactions were stopped by the addition of 70 μl of Stop buffer (100 mM HEPES pH 7.5, 0.015% Brij 35, 35 mM EDTA and 0.2% of Coating Reagent 3 (Caliper Lifesciences)). The plates were read on a Caliper EZReader 2 as described above.

T1 sequence (Q92918 whole entry): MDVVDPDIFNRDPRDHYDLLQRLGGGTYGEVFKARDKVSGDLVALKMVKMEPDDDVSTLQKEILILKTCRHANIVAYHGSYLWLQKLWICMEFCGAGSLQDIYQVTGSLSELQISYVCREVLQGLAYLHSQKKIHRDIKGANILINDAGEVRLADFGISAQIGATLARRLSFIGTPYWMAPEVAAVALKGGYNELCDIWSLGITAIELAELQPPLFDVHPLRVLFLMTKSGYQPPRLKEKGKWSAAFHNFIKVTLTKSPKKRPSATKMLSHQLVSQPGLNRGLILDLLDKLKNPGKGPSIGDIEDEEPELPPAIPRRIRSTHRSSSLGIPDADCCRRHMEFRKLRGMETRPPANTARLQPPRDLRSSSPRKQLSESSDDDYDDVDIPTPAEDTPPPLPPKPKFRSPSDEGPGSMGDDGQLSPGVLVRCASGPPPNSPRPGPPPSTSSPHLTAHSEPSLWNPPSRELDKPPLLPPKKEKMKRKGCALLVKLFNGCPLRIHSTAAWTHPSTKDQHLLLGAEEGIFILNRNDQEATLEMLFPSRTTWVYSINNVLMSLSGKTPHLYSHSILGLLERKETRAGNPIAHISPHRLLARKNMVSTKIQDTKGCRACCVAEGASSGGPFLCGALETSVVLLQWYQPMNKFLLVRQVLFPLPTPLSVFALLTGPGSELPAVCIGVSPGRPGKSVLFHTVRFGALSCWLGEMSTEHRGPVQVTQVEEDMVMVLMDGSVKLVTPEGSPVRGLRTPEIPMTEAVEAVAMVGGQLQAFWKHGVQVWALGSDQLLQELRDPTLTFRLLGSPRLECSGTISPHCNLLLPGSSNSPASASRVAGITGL

As a reminder, the IC50 is the midpoint of a concentration-inhibition curve. For `CCS(=O)(=O)C[C@H](C)[C@@H](C)Oc1ncc(C(C)(C)N)c2cc(Nc3ccc4c(n3)[C@@H](C)C(C)(C)OC4=O)ncc12` (single isomer, unassigned) [Compound 131], the IC50 stood at 1.94 nM.

As for `C[C@H](C[C@@H](C)S(C)(=O)=O)Oc1ncc([C@@](C)(N)C2CC2)c2cc(Nc3ccc4c(n3)[C@@H](C)C(C)(C)OC4=O)ncc12` (single isomer, unassigned) [Compound 137], the IC50 was 0.21 nM.

With `CCC[C@@](C)(N)c1cnc(O[C@H](C)C[C@@H](C)S(C)(=O)=O)c2cnc(Nc3ccc4c(n3)[C@@H](C)C(C)(C)OC4=O)cc12` (single isomer, unassigned) [Compound 142], the half-maximal inhibitory concentration (IC50) turned out to be 0.2 nM.

As to `CC[C@@](C)(N)c1cnc(O[C@@H](C)CCS(C)(=O)=O)c2cnc(Nc3ccc4c(n3)C3(CC3)[C@@H](C)OC4=O)cc12` (single isomer, unassigned) [Compound 147], the IC50 amounted to 0.46 nM.

With `CC[C@@](C)(N)c1cnc(O[C@H]2C[C@@H](S(C)(=O)=O)C2)c2cnc(Nc3ccc4c(n3)[C@@H](C)[C@@H](C)OC4=O)cc12` (single isomer, unassigned) [Compound 149], the IC50 is 0.25 nM.

Turning to `C[C@@H]1OC(=O)c2ccc(Nc3cc4c(C(C)(C)N)cnc(O[C@@H](C)C[C@@H]5CCCS5(=O)=O)c4cn3)nc2[C@H]1C` (single isomer, unassigned) [Compound 154], the IC50 was 0.62 nM.

As to `C[C@@H]1OC(=O)c2ccc(Nc3cc4c(C(C)(C)N)cnc(O[C@@H](C)C[C@@H]5CCCS5(=O)=O)c4cn3)nc2[C@H]1C` (single isomer, unassigned) [Compound 156], the IC50 amounted to 2.38 nM.

As for `C[C@@H]1OC(=O)c2ccc(Nc3cc4c(C(C)(C)N)cnc(O[C@@H](C)C[C@@H]5CCCS5(=O)=O)c4cn3)nc2[C@H]1C` (single isomer, unassigned) [Compound 157], the IC50 came out at 1.57 nM.

In the case of `C[C@H](C[C@H]1CCCS1(=O)=O)Oc1ncc(C(C)(C)N)c2cc(Nc3ccc4c(n3)[C@@H](C)C(C)(C)OC4=O)ncc12` (single isomer, unassigned) [Compound 158], the half-inhibitory concentration (IC50) stood at 0.86 nM.

With `C[C@H](C[C@H]1CCCS1(=O)=O)Oc1ncc(C(C)(C)N)c2cc(Nc3ccc4c(n3)[C@@H](C)C(C)(C)OC4=O)ncc12` (single isomer, unassigned) [Compound 159], the IC50 amounted to 0.42 nM.

On to `C[C@H](C[C@H]1CCCS1(=O)=O)Oc1ncc(C(C)(C)N)c2cc(Nc3ccc4c(n3)[C@@H](C)C(C)(C)OC4=O)ncc12` (single isomer, unassigned) [Compound 160], for which the IC50 worked out at 1.61 nM.

`C[C@H](C[C@H]1CCCS1(=O)=O)Oc1ncc(C(C)(C)N)c2cc(Nc3ccc4c(n3)[C@@H](C)C(C)(C)OC4=O)ncc12` (single isomer, unassigned) [Compound 161]: the IC50 was determined as 0.94 nM.

As for `COC[C@@](C)(N)c1cnc(O[C@H]2C[C@@H](S(C)(=O)=O)C2)c2cnc(Nc3ccc4c(n3)C3(CC3)[C@H](C)OC4=O)cc12` (single isomer, unassigned) [Compound 163], the IC50 stood at 0.22 nM.

For `COC[C@@](C)(N)c1cnc(O[C@H](C)C[C@@H](C)S(C)(=O)=O)c2cnc(Nc3ccc4c(n3)C3(CC3)[C@H](C)OC4=O)cc12` (single isomer, unassigned) [Compound 165], the IC50 stood at 1.15 nM.

For `CC[C@@](C)(N)c1cnc(O[C@H](C)CC[S@@+](C)[O-])c2cnc(Nc3ccc4c(n3)[C@@H](C)[C@H](C)OC4=O)cc12` (single isomer, unassigned) [Compound 166], the IC50 was found to be 0.2 nM.

Take `CC[C@@](C)(N)c1cnc(O[C@H](C)CC[S@+](C)[O-])c2cnc(Nc3ccc4c(n3)[C@@H](C)[C@H](C)OC4=O)cc12` (single isomer, unassigned) [Compound 167]: the IC50 stood at 0.19 nM.

Consider `C[C@@H]1c2nc(Nc3cc4c(C(C)(C)N)cnc(OCCC[S@@](C)(=N)=O)c4cn3)ccc2C(=O)OC1(C)C` (single isomer, unassigned) [Compound 169], for which the half-maximal inhibitory concentration (IC50) came out at 0.6 nM.

As for `C[C@@H]1c2nc(Nc3cc4c(C(C)(C)N)cnc(O[C@@H](CCS(C)(=O)=O)C(F)(F)F)c4cn3)ccc2C(=O)OC1(C)C` (single isomer, unassigned) [Compound 172], the IC50 was 1.86 nM.

As for `C[C@@H]1c2nc(Nc3cc4c(C(C)(C)N)cnc(O[C@H](CCS(C)(=O)=O)C(F)(F)F)c4cn3)ccc2C(=O)OC1(C)C` (single isomer, unassigned) [Compound 173], the IC50 stood at 9.8 nM.

As for `C[C@@H]1OC(=O)c2ccc(Nc3cc4c(C(C)(C)N)cnc(O[C@@H](CCS(C)(=O)=O)C(F)(F)F)c4cn3)nc2[C@H]1C` (single isomer, unassigned) [Compound 174], the IC50 was 5.35 nM.

Consider `C[C@@H]1OC(=O)c2ccc(Nc3cc4c(C(C)(C)N)cnc(O[C@H](CCS(C)(=O)=O)C(F)(F)F)c4cn3)nc2[C@H]1C` (single isomer, unassigned) [Compound 175], for which the IC50 stood at 23.3 nM.

For `CC[C@@](C)(N)c1cnc(O[C@H](C)C[C@@H](C)[S@@](C)(=N)=O)c2cnc(Nc3ccc4c(n3)C3(CC3)[C@@H](C)OC4=O)cc12` (single isomer, unassigned) [Compound 180], the IC50 worked out at 3.03 nM.

As for `CC[C@@](C)(N)c1cnc(O[C@@H](C)CC(C)(C)S(C)(=O)=O)c2cnc(Nc3ccc4c(n3)[C@@H](C)[C@H](C)OC4=O)cc12` (single isomer, unassigned) [Compound 184], the IC50 turned out to be 0.83 nM.

Regarding `CC[C@@](C)(N)c1cnc(O[C@@H](C)CC(C)(C)S(C)(=O)=O)c2cnc(Nc3ccc4c(n3)[C@@H](C)[C@H](C)OC4=O)cc12` (single isomer, unassigned) [Compound 185], the IC50 worked out at 0.22 nM.

In the case of `CC[C@@](C)(N)c1cnc(O[C@H](C)CC(C)(C)[S@@](C)(=N)=O)c2cnc(Nc3ccc4c(n3)C(C)(C)[C@@H](C)OC4=O)cc12` (single isomer, unassigned) [Compound 187], the IC50 turned out to be 2.2 nM.

Turning to `CC[C@@](C)(N)c1cnc(O[C@H](C)CC(C)(C)[S@@](C)(=N)=O)c2cnc(Nc3ccc4c(n3)C(C)(C)[C@@H](C)OC4=O)cc12` (single isomer, unassigned) [Compound 188], the IC50 came out at 0.96 nM.

Consider `CC[C@@](C)(N)c1cnc(O[C@H](C)CC(C)(C)[S@@](C)(=N)=O)c2cnc(Nc3ccc4c(n3)C(C)(C)[C@@H](C)OC4=O)cc12` (single isomer, unassigned) [Compound 189], for which the IC50 is 1.05 nM.

In the case of `CC[C@@](C)(N)c1cnc(O[C@H](C)CC(C)(C)[S@@](C)(=N)=O)c2cnc(Nc3ccc4c(n3)C(C)(C)[C@@H](C)OC4=O)cc12` (single isomer, unassigned) [Compound 190], the IC50 was determined as 5.1 nM.

Consider `CC[C@@](C)(N)c1cnc(O[C@@H](C)CC(C)(C)S(C)(=O)=O)c2cnc(Nc3ccc4c(n3)C(C)(C)[C@H](C)OC4=O)cc12` (single isomer, unassigned) [Compound 191], for which the IC50 came out at 3.67 nM.

For `CC[C@@](C)(N)c1cnc(O[C@@H](C)CC(C)(C)S(C)(=O)=O)c2cnc(Nc3ccc4c(n3)C(C)(C)[C@H](C)OC4=O)cc12` (single isomer, unassigned) [Compound 192], the IC50 came to 0.94 nM.

With `COC[C@@](C)(N)c1cnc(OCCCS(C)(=O)=O)c2cnc(Nc3ccc4c(n3)[C@@H](C)C(C)(C)OC4=O)cc12` (stereo in doubt) [Compound 179], the IC50 was 0.49 nM.

As to `C[C@@H]1OC(=O)c2ccc(Nc3cc4c(C(C)(C)N)cnc(OC5CS(=O)(=O)C5)c4cn3)nc2[C@H]1C` [Compound 1], the IC50 worked out at 0.26 nM.

Consider `CC(C)(N)c1cnc(O[C@H]2C[C@@H](S(C)(=O)=O)C2)c2cnc(Nc3ccc4c(n3)C(C)(C)OC4=O)cc12` [Compound 4], for which the IC50 amounted to 1.85 nM.

For `C[C@@H]1c2nc(Nc3cc4c(C(C)(C)N)cnc(OC5(C)CS(=O)(=O)C5)c4cn3)ccc2C(=O)OC1(C)C` [Compound 10], the IC50 is 0.12 nM.

Take `C[C@@H]1c2nc(Nc3cc4c(C(C)(C)N)cnc(OCC5CS(=O)(=O)C5)c4cn3)ccc2C(=O)OC1(C)C` [Compound 12]: the IC50 came to 0.56 nM.

Regarding `C[C@@H]1OC(=O)c2ccc(Nc3cc4c(C(C)(C)N)cnc(O[C@H]5C[C@H](S(C)(=O)=O)C5)c4cn3)nc2[C@H]1C` [Compound 14], the IC50 is 0.28 nM.

As for `C[C@@H]1c2nc(Nc3cc4c(C(C)(C)N)cnc(OCCCS(C)(=O)=O)c4cn3)ccc2C(=O)OC1(C)C` [Compound 17], the IC50 worked out at 0.15 nM.

In the case of `CC[C@@](C)(N)c1cnc(OCCCS(C)(=O)=O)c2cnc(Nc3ccc4c(n3)[C@@H](C)[C@H](C)OC4=O)cc12` [Compound 20], the IC50 was determined as 0.13 nM.
